This test relates to MV-4-11 cells. Description: Gene expression microarray analysis (Affymetrix PrimeView) and GSEA. Conditions: ProbeSet 11718701_a_at; LIST B. The class given is cell-based, human. On the set-up: RFU PODN (11730768_x_at) / Fold change /veh PODN (11730768_x_at) / RFU LINC00158 (11744669_a_at) / Fold change /veh LINC00158 (11744669_a_at) / RFU DUSP10 (11751237_a_at) / Fold change /veh DUSP10 (11751237_a_at) / RFU ID3 (11757404_x_at) / Fold change /veh ID3 (11757404_x_at) / RFU PLEKHG5 (11737974_s_at) / Fold change /veh PLEKHG5 (11737974_s_at) / RFU LRRC4B (11730491_at) / Fold change /veh LRRC4B (11730491_at) / RFU GIMAP4 (11747438_a_at) / Fold change /veh GIMAP4 (11747438_a_at) / RFU KRT8 (11758183_x_at) / Fold change /veh KRT8 (11758183_x_at) / RFU CNN1 (11734310_a_at) / Fold change /veh CNN1 (11734310_a_at) / RFU VPS37D (11726825_at) / Fold change /veh VPS37D (11726825_at) / RFU C10orf10 (11716522_x_at) / Fold change /veh C10orf10 (11716522_x_at) / RFU KIR2DL2 /// KIR2DL4 /// KIR2DL5A /// KIR2DL5B /// KIR2DS1 /// KIR2DS2 /// KIR2DS3 /// KIR2DS4 /// KIR3DL3 /// KIR3DL3 /// KIR3DS1 (11738374_at) / Fold change /veh KIR2DL2 /// KIR2DL4 /// KIR2DL5A /// KIR2DL5B /// KIR2DS1 /// KIR2DS2 /// KIR2DS3 /// KIR2DS4 /// KIR3DL3 /// KIR3DL3 /// KIR3DS1 (11738374_at) / RFU C1QL1 (11718748_at) / Fold change /veh C1QL1 (11718748_at) / RFU TMPRSS4 (11747572_a_at) / Fold change /veh TMPRSS4 (11747572_a_at) / RFU HAMP (11756126_x_at) / Fold change /veh HAMP (11756126_x_at) / RFU RNFT2 (11725882_a_at) / Fold change /veh RNFT2 (11725882_a_at) / RFU NR4A2 (11747474_a_at) / Fold change /veh NR4A2 (11747474_a_at) / RFU ABCC12 (11746883_a_at) / Fold change /veh ABCC12 (11746883_a_at) / RFU TMEM136 (11760407_x_at) / Fold change /veh TMEM136 (11760407_x_at) / RFU CLDN22 /// WWC2 (11732394_at) / Fold change /veh CLDN22 /// WWC2 (11732394_at) / RFU HLA-DPB1 (11760878_x_at) / Fold change /veh HLA-DPB1 (11760878_x_at) / RFU SPINT1 (11716480_a_at) / Fold change /veh SPINT1 (11716480_a_at) / RFU GAP43 (11754022_s_at) / Fold change /veh GAP43 (11754022_s_at) / RFU A4GNT (11735810_at) / Fold change /veh A4GNT (11735810_at) / RFU PRB3 (11715151_x_at) / Fold change /veh PRB3 (11715151_x_at) / RFU TUBB4B (11761932_at) / Fold change /veh TUBB4B (11761932_at) / RFU CAPN14 (11732068_a_at) / Fold change /veh CAPN14 (11732068_a_at) / RFU TMCC2 (11721928_a_at) / Fold change /veh TMCC2 (11721928_a_at) / RFU IRGQ (11745062_a_at) / Fold change /veh IRGQ (11745062_a_at) / RFU FAM174B (11720279_a_at) / Fold change /veh FAM174B (11720279_a_at) / RFU TMPRSS4 (11748680_a_at) / Fold change /veh TMPRSS4 (11748680_a_at) / RFU FAM212B (11763350_a_at) / Fold change /veh FAM212B (11763350_a_at) / RFU PLEKHG5 (11743358_a_at) / Fold change /veh PLEKHG5 (11743358_a_at) / RFU ZSCAN30 (11745921_a_at) / Fold change /veh ZSCAN30 (11745921_a_at) / RFU CMKLR1 (11741424_a_at) / Fold change /veh CMKLR1 (11741424_a_at) / RFU LOC101060620 /// MAPK8IP1 (11723275_at) / Fold change /veh LOC101060620 /// MAPK8IP1 (11723275_at) / RFU SPTSSB (11747773_x_at) / Fold change /veh SPTSSB (11747773_x_at) / RFU PRSS12 (11739890_at) / Fold change /veh PRSS12 (11739890_at) / RFU BIN1 (11741810_x_at) / Fold change /veh BIN1 (11741810_x_at) / RFU WNT11 (11732464_a_at) / Fold change /veh WNT11 (11732464_a_at) / RFU C10orf10 (11716521_a_at) / Fold change /veh C10orf10 (11716521_a_at) / RFU C5orf56 (11738089_at) / Fold change /veh C5orf56 (11738089_at) / RFU CYB561 (11721691_x_at) / Fold change /veh CYB561 (11721691_x_at) / RFU ANKRD19P (11752326_a_at) / Fold change /veh ANKRD19P (11752326_a_at) / RFU OR2T12 /// OR2T33 /// OR2T8 (11738714_s_at) / Fold change /veh OR2T12 /// OR2T33 /// OR2T8 (11738714_s_at) / RFU VCAN (11748164_a_at) / Fold change /veh VCAN (11748164_a_at) / RFU JSRP1 (11732532_at) / Fold change /veh JSRP1 (11732532_at) / RFU KRTAP10-11 (11738290_x_at) / Fold change /veh KRTAP10-11 (11738290_x_at) / RFU MYO3A (11730013_a_at) / Fold change /veh MYO3A (11730013_a_at) / RFU EBF3 (11725865_a_at) / Fold change /veh EBF3 (11725865_a_at) / RFU CAMK2N1 (11719241_x_at) / Fold change /veh CAMK2N1 (11719241_x_at) / RFU C5orf56 (11738088_a_at) / Fold change /veh C5orf56 (11738088_a_at) / RFU OLFML3 (11715873_a_at) / Fold change /veh OLFML3 (11715873_a_at) / RFU LOC100653217 /// NTM (11731650_a_at) / Fold change /veh LOC100653217 /// NTM (11731650_a_at) / RFU MAPK11 (11762145_a_at) / Fold change /veh MAPK11 (11762145_a_at) / RFU FIZ1 (11724087_x_at) / Fold change /veh FIZ1 (11724087_x_at) / RFU OASL (11726364_x_at) / Fold change /veh OASL (11726364_x_at) / RFU SOX15 (11748057_x_at) / Fold change /veh SOX15 (11748057_x_at) / RFU CD79A (11719716_a_at) / Fold change /veh CD79A (11719716_a_at) / RFU HIST1H1D (11736915_at) / Fold change /veh HIST1H1D (11736915_at) / RFU CASKIN2 (11723855_a_at) / Fold change /veh CASKIN2 (11723855_a_at) / RFU LOC730098 (11760151_x_at) / Fold change /veh LOC730098 (11760151_x_at) / RFU OR4N2 (11742367_at) / Fold change /veh OR4N2 (11742367_at) / RFU PRRT2 (11749266_a_at) / Fold change /veh PRRT2 (11749266_a_at) / RFU SNX32 (11753110_a_at) / Fold change /veh SNX32 (11753110_a_at) / RFU CDHR5 (11726645_a_at) / Fold change /veh CDHR5 (11726645_a_at) / RFU RCAN1 (11760418_a_at) / Fold change /veh RCAN1 (11760418_a_at) / RFU FAM167A (11723789_a_at) / Fold change /veh FAM167A (11723789_a_at) / RFU FAM26E (11764081_at) / Fold change /veh FAM26E (11764081_at) / RFU ISYNA1 (11749810_s_at) / Fold change /veh ISYNA1 (11749810_s_at) / RFU ACY1 (11761880_at) / Fold change /veh ACY1 (11761880_at) / RFU 11764098_at / Fold change /veh 11764098_at / RFU SAMD14 (11745864_x_at) / Fold change /veh SAMD14 (11745864_x_at) / RFU NPB (11741838_a_at) / Fold change /veh NPB (11741838_a_at) / RFU TMPRSS6 (11731388_a_at) / Fold change /veh TMPRSS6 (11731388_a_at) / RFU KRTAP10-2 (11738614_at) / Fold change /veh KRTAP10-2 (11738614_at) / RFU ARHGAP8 /// PRR5-ARHGAP8 (11727945_x_at) / Fold change /veh ARHGAP8 /// PRR5-ARHGAP8 (11727945_x_at) / RFU KRTAP5-7 /// NADSYN1 (11734609_at) / Fold change /veh KRTAP5-7 /// NADSYN1 (11734609_at) / RFU RASL12 (11751679_a_at) / Fold change /veh RASL12 (11751679_a_at) / RFU CDKN2B (11736163_a_at) / Fold change /veh CDKN2B (11736163_a_at) / RFU PRF1 (11729649_at) / Fold change /veh PRF1 (11729649_at) / RFU, ZNF638 /// ZNF638-IT1 / Fold change vs veh, ZNF638 /// ZNF638-IT1 / RFU, PANK3 / Fold change vs veh, PANK3 / RFU, SH3YL1 / Fold change vs veh, SH3YL1 / RFU, ZEB2 / Fold change vs veh, ZEB2 / RFU, NRIP1 / Fold change vs veh, NRIP1 / RFU, PTTG1IP / Fold change vs veh, PTTG1IP / RFU, CAPN2 / Fold change vs veh, CAPN2 / RFU, MED14 / Fold change vs veh, MED14 / RFU, SNORA58 / Fold change vs veh, SNORA58 / RFU, C1orf63 / Fold change vs veh, C1orf63 / RFU, LRRFIP1 / Fold change vs veh, LRRFIP1 / RFU, NDUFAF7 / Fold change vs veh, NDUFAF7 / RFU, SLC12A2 / Fold change vs veh, SLC12A2 / RFU, IBTK / Fold change vs veh, IBTK / RFU, ESF1 / Fold change vs veh, ESF1 / Fold change vs veh, TMEM50B / RFU, TAOK1 / Fold change vs veh, TAOK1 / RFU, ACBD3 / Fold change vs veh, ACBD3 / RFU, TMA16 / Fold change vs veh, TMA16 / RFU, RWDD3 / Fold change vs veh, RWDD3 / RFU, BCAT1 / Fold change vs veh, BCAT1 / RFU, EDEM3 / Fold change vs veh, EDEM3 / RFU, TMEM33 / Fold change vs veh, TMEM33 / RFU, WDR75 / Fold change vs veh, WDR75 / RFU, AHCTF1 / Fold change vs veh, AHCTF1 / RFU, TFRC / Fold change vs veh, TFRC / RFU, ZDHHC17 / Fold change vs veh, ZDHHC17 / RFU, NOM1 / Fold change vs veh, NOM1 / RFU, ARL8B / Fold change vs veh, ARL8B / RFU, ZBTB11 / Fold change vs veh, ZBTB11 / RFU, TAMM41 / Fold change vs veh, TAMM41 / RFU, KIAA1704 /// LOC100996395 / Fold change vs veh, KIAA1704 /// LOC100996395 / RFU, ING1 / Fold change vs veh, ING1 / RFU, TRMT61B / Fold change vs veh, TRMT61B / RFU, FUBP3 / Fold change vs veh, FUBP3 / RFU, TP53 / Fold change vs veh, TP53 / RFU, TNKS2 / Fold change vs veh, TNKS2 / RFU, ZFP14 / Fold change vs veh, ZFP14 / RFU, ACTR2 / Fold change vs veh, ACTR2 / RFU, PPP3R1 / Fold change vs veh, PPP3R1 / RFU, PIK3R1 / Fold change vs veh, PIK3R1 / RFU, HNRNPA1 / Fold change vs veh, HNRNPA1 / RFU, RNF170 / Fold change vs veh, RNF170 / RFU, ZNF28 / Fold change vs veh, ZNF28 / RFU, RNGTT / Fold change vs veh, RNGTT / RFU, OGT / Fold change vs veh, OGT / RFU, BRD1 / Fold change vs veh, BRD1 / RFU, MARS / Fold change vs veh, MARS / RFU, ZNF655 / Fold change vs veh, ZNF655 / RFU, FAHD1 / Fold change vs veh, FAHD1 / RFU, BDP1 / Fold change vs veh, BDP1 / RFU, LRRCC1 / Fold change vs veh, LRRCC1 / RFU, ARID1A / Fold change vs veh, ARID1A / RFU, ZNF146 / Fold change vs veh, ZNF146 / RFU, ZNF330 / Fold change vs veh, ZNF330 / RFU, GPN3 / Fold change vs veh, GPN3 / RFU, C9orf123 / Fold change vs veh, C9orf123 / RFU, N4BP2L2 / Fold change vs veh, N4BP2L2 / RFU, ARFIP1 / Fold change vs veh, ARFIP1 / RFU, FAM179B / Fold change vs veh, FAM179B / RFU, BCL10 / Fold change vs veh, BCL10 / RFU, UHRF1BP1L / Fold change vs veh, UHRF1BP1L / RFU, BET1 / Fold change vs veh, BET1 / RFU, CNOT2 / Fold change vs veh, CNOT2 / RFU, ZNF268 / Fold change vs veh, ZNF268 / Fold change vs veh, ZNF507 / RFU, DGCR2 / Fold change vs veh, DGCR2 / RFU, WDSUB1 / Fold change vs veh, WDSUB1 / Fold change vs veh, HSP90B1 /// MIR3652 / RFU, ADSS / Fold change vs veh, ADSS / RFU, GK / Fold change vs veh, GK / RFU, ZNF148 / Fold change vs veh, ZNF148 / RFU, TAF9 / Fold change vs veh, TAF9 / RFU, SLC1A5 / Fold change vs veh, SLC1A5 / RFU, SLMO2 / Fold change vs veh, SLMO2 / RFU, ABCC4 / Fold change vs veh, ABCC4 / RFU, LOC101060439 /// RAP1B / Fold change vs veh, LOC101060439 /// RAP1B / RFU, RFX7 / Fold change vs veh, RFX7 / RFU, GTPBP10 / Fold change vs veh, GTPBP10 / RFU, CNEP1R1 / Fold change vs veh, CNEP1R1 / RFU, BIVM-ERCC5 /// ERCC5 / Fold change vs veh, BIVM-ERCC5 /// ERCC5 / RFU, ILF3 / Fold change vs veh, ILF3 / RFU 11762660_at / Fold change /veh 11762660_at / RFU VCAN (11757783_s_at) / Fold change /veh VCAN (11757783_s_at) / RFU DDX43 (11728927_at) / Fold change /veh DDX43 (11728927_at) / RFU KRT8 (11758188_x_at) / Fold change /veh KRT8 (11758188_x_at) / RFU NKD1 (11759106_at) / Fold change /veh NKD1 (11759106_at) / RFU SRD5A1 (11742802_a_at) / Fold change /veh SRD5A1 (11742802_a_at) / RFU TPSAB1 /// TPSB2 (11721975_s_at) / Fold change /veh TPSAB1 /// TPSB2 (11721975_s_at) / RFU GSTM3 (11746129_a_at) / Fold change /veh GSTM3 (11746129_a_at) / RFU IL23R (11737362_x_at) / Fold change /veh IL23R (11737362_x_at) / RFU TMEM51 (11727254_a_at) / Fold change /veh TMEM51 (11727254_a_at) / RFU PIWIL2 (11732686_x_at) / Fold change /veh PIWIL2 (11732686_x_at) / RFU ORM1 (11744905_x_at) / Fold change /veh ORM1 (11744905_x_at) / RFU CCDC152 (11743942_at) / Fold change /veh CCDC152 (11743942_at) / RFU ECM1 (11717891_a_at) / Fold change /veh ECM1 (11717891_a_at) / RFU IL23R (11748794_a_at) / Fold change /veh IL23R (11748794_a_at) / RFU TNFAIP8L3 (11732012_x_at) / Fold change /veh TNFAIP8L3 (11732012_x_at) / RFU MBOAT4 (11741988_at) / Fold change /veh MBOAT4 (11741988_at) / RFU 11764193_at / Fold change /veh 11764193_at / RFU TMEM53 (11763286_at) / Fold change /veh TMEM53 (11763286_at) / RFU MAGEB2 (11727129_at) / Fold change /veh MAGEB2 (11727129_at) / RFU TMEM200A (11744735_a_at) / Fold change /veh TMEM200A (11744735_a_at) / RFU CCDC152 (11751479_a_at) / Fold change /veh CCDC152 (11751479_a_at) / RFU FAM211A (11726209_a_at) / Fold change /veh FAM211A (11726209_a_at) / RFU RGS16 (11746705_a_at) / Fold change /veh RGS16 (11746705_a_at) / RFU VCAN (11755009_s_at) / Fold change /veh VCAN (11755009_s_at) / RFU RHOB (11743442_s_at) / Fold change /veh RHOB (11743442_s_at) / RFU RGS16 (11720943_a_at) / Fold change /veh RGS16 (11720943_a_at) / RFU RGS16 (11720944_at) / Fold change /veh RGS16 (11720944_at) / RFU, VPS4B / Fold change vs veh, VPS4B / RFU, CREB1 / Fold change vs veh, CREB1 / RFU, DNAJC13 / Fold change vs veh, DNAJC13 / RFU, GNAQ / Fold change vs veh, GNAQ / RFU, CDK5R1 / Fold change vs veh, CDK5R1 / RFU, ZRANB3 / Fold change vs veh, ZRANB3 / RFU, CUL4A / Fold change vs veh, CUL4A / RFU, CCNY / Fold change vs veh, CCNY / RFU, UFL1 / Fold change vs veh, UFL1 / RFU, COG3 / Fold change vs veh, COG3 / RFU, DIAPH2 / Fold change vs veh, DIAPH2 / RFU, SKA2 / Fold change vs veh, SKA2 / RFU, AFF3 / Fold change vs veh, AFF3 / RFU, LMF1 / Fold change vs veh, LMF1 / RFU, IPO11 / Fold change vs veh, IPO11 / RFU, DFFB / Fold change vs veh, DFFB / RFU, FOXP1 / Fold change vs veh, FOXP1 / RFU, CARD8 / Fold change vs veh, CARD8 / RFU, STRN3 / Fold change vs veh, STRN3 / RFU, ADK / Fold change vs veh, ADK / RFU, RASSF2 / Fold change vs veh, RASSF2 / RFU, WIPF1 / Fold change vs veh, WIPF1 / RFU, LARP1B / Fold change vs veh, LARP1B / RFU, RASA1 / Fold change vs veh, RASA1 / RFU, RB1 / Fold change vs veh, RB1 / RFU, PPFIA1 / Fold change vs veh, PPFIA1 / RFU, MAT2A / Fold change vs veh, MAT2A / RFU, CCT5 / Fold change vs veh, CCT5 / RFU, WDR92 / Fold change vs veh, WDR92 / RFU, CUX1 / Fold change vs veh, CUX1 / RFU, TTC7A / Fold change vs veh, TTC7A / RFU, TMEM135 / Fold change vs veh, TMEM135 / RFU, DEPTOR / Fold change vs veh, DEPTOR / RFU, CPM / Fold change vs veh, CPM / RFU, DNAJB6 / Fold change vs veh, DNAJB6 / RFU, CACNA2D3 / Fold change vs veh, CACNA2D3 / RFU, DTX4 / Fold change vs veh, DTX4 / RFU, TFCP2 / Fold change vs veh, TFCP2 / RFU, GMCL1 /// GMCL1P1 / Fold change vs veh, GMCL1 /// GMCL1P1 / RFU, AEBP2 / Fold change vs veh, AEBP2 / RFU, SNHG1 /// SNORD22 /// SNORD25 /// SNORD26 /// SNORD27 /// SNORD28 /// SNORD29 /// SNORD31 / Fold change vs veh, SNHG1 /// SNORD22 /// SNORD25 /// SNORD26 /// SNORD27 /// SNORD28 /// SNORD29 /// SNORD31 / Fold change (Aza/veh), C12orf56 (ProbeSet 11735607_a_at) / Fold change (ACY-1035/veh), C12orf56 (ProbeSet 11735607_a_at) / Fold change (Aza/veh), FGFR1OP (ProbeSet 11751329_s_at) / Fold change (ACY-1035/veh), FGFR1OP (ProbeSet 11751329_s_at) / Fold change (Aza/veh), VPS36 (ProbeSet 11739960_a_at) / Fold change (ACY-1035/veh), VPS36 (ProbeSet 11739960_a_at) / RFU SYPL1 (11715823_x_at) / Fold change /veh SYPL1 (11715823_x_at) / RFU IGFBP7 (11715501_s_at) / Fold change /veh IGFBP7 (11715501_s_at) / RFU REEP3 (11722064_at) / Fold change /veh REEP3 (11722064_at) / RFU IGLL1 (11728026_x_at) / Fold change /veh IGLL1 (11728026_x_at): dose or concentration left out as unconfirmed.

`Nc1ccc(-c2cccs2)cc1NC(=O)c1ccc2c(c1)cc(C1CC1)n2CCN1CCOCC1` [ACY-1035]: the “RFU, ARFIP1” value came out at 56.28 RFU.

(Values after article PMC5218480 (PLoS ONE, 2017).)
